Test systems include U-251; CAKI-1; UO-31; OVCAR-4; TK-10; HOP-92; SK-MEL-5; SNB-19; RXF 393; UACC-62; SR; NCI-H23; SK-MEL-2; COLO 205; SF-295; HOP-62; LOX IMVI; NCI-H460.
Holding throughout (assay): NCI anticancer screen, dose series, 48 h

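Five compound concentrations were applied to cells in 96-well plates for 48 hours; endpoints were derived by simple linear interpolation of the resulting dose-response curve. GI50: concentration for 50% inhibition of growth.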 Activity calls are given as the source filed them. Cut-off read from the data, not from the text of the source: active = GI50 up to about 1.1 µM and inactive = higher.

Take `O=C(N/C(=C\c1ccc([N+](=O)[O-])cc1)c1nc2c(O)nc(S)nc2[nH]1)c1ccccc1`: the GI50 is > 100 µM (inactive) in the assay on U-251; > 100 µM (inactive) with CAKI-1; 30.8 µM (inactive) with UO-31; 99.5 µM (inactive) in the assay with OVCAR-4; > 100 µM (inactive) in the assay with TK-10; 43.7 µM (inactive) with HOP-92. Also, the GI50 in the assay on SK-MEL-5, in the assay on SNB-19, in the assay on RXF 393, with UACC-62, with SR and in the assay with NCI-H23 was > 100 µM (inactive) throughout. For the same molecule, the GI50 with SK-MEL-2, in the assay with COLO 205 and in the assay with SF-295 was > 100 µM (inactive) in each case.

Turning to `COC(=O)NC(=O)c1cn(C2OC(CO)C(O)C2O)c(=O)[nH]c1=O` (stereo not given), the GI50 in the assay on U-251, with CAKI-1, with UO-31, in the assay on OVCAR-4, with TK-10 and in the assay on HOP-92 was > 100 µM (inactive) throughout. Moreover, the GI50 in the assay with SNB-19, with HOP-62, in the assay with LOX IMVI, in the assay with UACC-62, in the assay with SR and in the assay on NCI-H23 was > 100 µM (inactive) in each case. Besides, the GI50 in the assay on SK-MEL-2, with COLO 205, with NCI-H460 and in the assay on SF-295 was > 100 µM (inactive) in each case.

As for `CCN(CC)C(=S)N/N=C(\C)c1ccccc1O`, the GI50 is 16.9 µM (inactive) with U-251; 18.4 µM (inactive) in the assay on CAKI-1; 14.3 µM (inactive) in the assay on UO-31; > 100 µM (inactive) in the assay with OVCAR-4; 62.1 µM (inactive) with TK-10; 10.7 µM (inactive) in the assay on SK-MEL-5. Moreover, the GI50 was 20.8 µM (inactive) with SNB-19; 25.6 µM (inactive) with RXF 393; 34.6 µM (inactive) in the assay with HOP-62; 15.5 µM (inactive) in the assay on LOX IMVI; 10.9 µM (inactive) with UACC-62; 8.13 µM (inactive) in the assay on SR. Besides, the GI50 with NCI-H23 was 25 µM (inactive); in the assay on SK-MEL-2, 19 µM (inactive); in the assay on COLO 205 it was 40.9 µM (inactive); in the assay on NCI-H460, 4.84 µM (inactive); in the assay on SF-295 it was 15.5 µM (inactive).

As for `O=C(O)C1=C(C(=O)Nc2ccccc2)C2C=CC1C2` (stereo not given), the GI50 in the assay with U-251, in the assay with UO-31, with OVCAR-4, in the assay with TK-10, in the assay with HOP-92 and in the assay with SK-MEL-5 was > 100 µM (inactive) each time. Moreover, the GI50 in the assay with SNB-19, in the assay on RXF 393, with HOP-62, in the assay on LOX IMVI, in the assay on UACC-62 and in the assay with SR was > 100 µM (inactive) in each case. Also, the GI50 in the assay with NCI-H23, in the assay on COLO 205, in the assay on NCI-H460 and in the assay on SF-295 was > 100 µM (inactive) each time.

As to `Cn1cnc2[nH]c(=O)[nH]c(=S)c21`, the GI50 in the assay on U-251, in the assay with CAKI-1, in the assay with UO-31, with OVCAR-4, in the assay on TK-10 and with HOP-92 was > 100 µM (inactive) each time. Besides, the GI50 in the assay on SK-MEL-5, in the assay on SNB-19, in the assay on RXF 393, with HOP-62, in the assay on UACC-62 and with SR was > 100 µM (inactive) in each case. Also, the GI50 in the assay on NCI-H23, in the assay with SK-MEL-2, with COLO 205, with NCI-H460 and in the assay with SF-295 was > 100 µM (inactive) throughout.

Take `NNC(=O)C(=O)N/N=C(\CCC(=O)Nc1ccc(Cl)cc1)Cc1nc2ccccc2s1`: the GI50 is 18.8 µM (inactive) in the assay on U-251; 38.2 µM (inactive) in the assay on CAKI-1; 11.9 µM (inactive) in the assay with UO-31; 56.1 µM (inactive) in the assay with TK-10; 45.5 µM (inactive) in the assay on HOP-92; 21.8 µM (inactive) in the assay with SK-MEL-5. The GI50 in the assay on SNB-19 was 30.5 µM (inactive); in the assay on RXF 393, 17.2 µM (inactive); with HOP-62, 53.2 µM (inactive); in the assay on LOX IMVI, 17.7 µM (inactive); in the assay with UACC-62, 22.1 µM (inactive); in the assay on SR it was 11.9 µM (inactive). In addition, the GI50 in the assay with NCI-H23 is 30.9 µM (inactive); with SK-MEL-2, 28.9 µM (inactive); in the assay on COLO 205, 32.7 µM (inactive); with NCI-H460, 28 µM (inactive); in the assay with SF-295 it was 36.6 µM (inactive).

In the case of `Cc1cc2nc(-c3cc(C(C)(C)C)c(O)c(C(C)(C)C)c3)[nH]c2cc1C`, the GI50 with U-251 was 2.64 µM (inactive); with UO-31, 6.17 µM (inactive); in the assay on OVCAR-4, 1.54 µM (inactive); with TK-10, > 22.3 µM (inactive); with HOP-92 it was > 100 µM (inactive); in the assay on SK-MEL-5, > 71 µM (inactive). The GI50 in the assay with SNB-19 is 11.6 µM (inactive); in the assay with RXF 393, > 100 µM (inactive); with HOP-62 it was > 100 µM (inactive); with LOX IMVI, 4.16 µM (inactive); in the assay on UACC-62, 0.979 µM (active); in the assay on SR, 1.06 µM (active). Moreover, the GI50 was > 34 µM (inactive) in the assay with NCI-H23; > 100 µM (inactive) in the assay with SK-MEL-2; 2.9 µM (inactive) in the assay with COLO 205; 4.47 µM (inactive) in the assay on NCI-H460; > 100 µM (inactive) with SF-295.

Turning to `c1ccc(C2=NN(c3ccccc3)C3(S2)SC(c2ccccc2)(c2ccccc2)c2ccccc23)cc1` (stereo not given), the GI50 in the assay with U-251, in the assay on CAKI-1, with UO-31, in the assay on OVCAR-4, in the assay on TK-10 and with HOP-92 was > 100 µM (inactive) in each case. Also, the GI50 with SK-MEL-5, in the assay with SNB-19, in the assay with HOP-62, in the assay with LOX IMVI, in the assay on UACC-62 and in the assay with NCI-H23 was > 100 µM (inactive) each time. For the same molecule, the GI50 in the assay with SK-MEL-2, in the assay on COLO 205, in the assay on NCI-H460 and in the assay on SF-295 was > 100 µM (inactive) throughout.

Take `COC(=O)C(=O)C(C#N)c1ccc(Cl)c(Cl)c1` (stereo not given): the GI50 in the assay on U-251, in the assay on CAKI-1, in the assay with UO-31, in the assay on TK-10, in the assay on HOP-92 and with SK-MEL-5 was > 100 µM (inactive) throughout. Also, the GI50 in the assay on LOX IMVI, with UACC-62, in the assay on SR, in the assay on NCI-H23, in the assay with SK-MEL-2 and in the assay on SF-295 was > 100 µM (inactive) each time.

With `CC(C)c1cccc(C(C)C)c1NC(=O)C(=O)Cc1nc2ccc([N+](=O)[O-])cc2nc1O`, the GI50 was 75.3 µM (inactive) in the assay on CAKI-1; > 100 µM (inactive) in the assay on UO-31; 64.3 µM (inactive) with OVCAR-4; > 100 µM (inactive) in the assay with TK-10; 50.6 µM (inactive) with HOP-92; > 10 µM (inactive) in the assay with SK-MEL-5. Further, the GI50 with SNB-19 was > 100 µM (inactive); with RXF 393, > 100 µM (inactive); with LOX IMVI, 23.2 µM (inactive); in the assay on UACC-62, 24.5 µM (inactive); with NCI-H23 it was 31.9 µM (inactive); with SK-MEL-2, 61 µM (inactive). In addition, the GI50 with COLO 205 was 41.8 µM (inactive); in the assay with NCI-H460 it was 70.1 µM (inactive); in the assay with SF-295, > 100 µM (inactive).

As to `CC(=O)NNc1nc(C)c(C(=O)/C=C/c2ccccc2Cl)s1`, the GI50 in the assay on U-251, in the assay on CAKI-1, in the assay with UO-31, with TK-10, in the assay with HOP-92 and in the assay on SK-MEL-5 was > 100 µM (inactive) each time. Moreover, the GI50 in the assay with SNB-19, in the assay with RXF 393, in the assay with HOP-62, in the assay with LOX IMVI, in the assay with UACC-62 and with NCI-H23 was > 100 µM (inactive) each time. Also, the GI50 in the assay with SK-MEL-2, with COLO 205, with NCI-H460 and with SF-295 was > 100 µM (inactive) each time.

`Nc1ccc(C(=O)N/C(=C\C=C\c2ccco2)c2nc3c4c(ccc3[nH]2)C(=O)c2ccccc2C4=O)cc1`: the GI50 in the assay on U-251 was 31.3 µM (inactive); with CAKI-1, 24.6 µM (inactive); in the assay with UO-31 it was 2.34 µM (inactive); in the assay on OVCAR-4 it was 52.4 µM (inactive); in the assay with TK-10, 23.1 µM (inactive); in the assay with HOP-92 it was 37 µM (inactive). The GI50 in the assay with SK-MEL-5 was 38 µM (inactive); with SNB-19, 39.7 µM (inactive); in the assay on RXF 393, 25.2 µM (inactive); in the assay on HOP-62, 56.2 µM (inactive); with LOX IMVI, 25.5 µM (inactive); with UACC-62, 25 µM (inactive). Besides, the GI50 in the assay with NCI-H23 is 41.5 µM (inactive); in the assay on SK-MEL-2, 26.5 µM (inactive); in the assay on COLO 205 it was 61.1 µM (inactive); in the assay with SF-295 it was 31.7 µM (inactive).
